The results in this text go back to patent US9084769B2, “Compositions comprising non steroidal anti-inflammatory drugs and methods for use thereof” (priority 2011, dated 2015).

The test system of data set [1] is Carrageenin-induced hind paw edema. As to the kind of experiment: Carrageenin-induced hind paw edema. Particulars: oral, specific predetermined doses; plethysmometer, baseline and three hours after induction. The data set is classed as in vivo, SD rats. The procedure:
C57Bl/6 mice and Sprague-Dawley (SD) rats were used. Animals were group-housed under controlled temperature (25° C.) and photoperiods (12:12-hour light-dark cycle), and allowed unrestricted access to standard diet and tap water, unless otherwise noted. Animals were allowed to acclimate to these conditions for at least 7 days before inclusion in experiments. For each group of experiments, animals were matched by age, sex, and body weight. Care and experimentation of mice were performed in accordance with guidelines under protocols approved by the Institutional Animal Care and Use Committee. To evaluate the effects of inflammation, Epi, ZnCar, Ibu, Nap, Cox, Ibu+Epi, Ibu+ZnCl, Ibu+ZnSt, Ibu+ZnCar, Ibu+Epi+ZnCl, and Ibu+Epi+ZnCar were administered in specific predetermined doses. Six rats were used in each group. Carrageenin-induced hind paw edema was established in SD rats using Lambda-carrageenin solution injected so into the right hind paw within the first hour of oral administration of these drugs. The paw volume was estimated using a plethysmometer both at baseline and three hours following induction.
(In general: The carrageenan paw model is a standard test of acute inflammation.)

Data set [2] has as its system acetylcholine-induced mouse writing model. As to the kind of experiment: acetylcholine-induced mouse writing model (analgesic effects). The data set is classed as in vivo, mice. Particulars: oral, predetermined ED50 dose ranges, 30 min before i.p. acetylcholine; writhes counted for 30 min; FIG. 1. Here is the method: C57Bl/6 mice and Sprague-Dawley (SD) rats were used. Animals were group-housed under controlled temperature (25° C.) and photoperiods (12:12-hour light-dark cycle), and allowed unrestricted access to standard diet and tap water, unless otherwise noted. Animals were allowed to acclimate to these conditions for at least 7 days before inclusion in experiments. For each group of experiments, animals were matched by age, sex, and body weight. Care and experimentation of mice were performed in accordance with guidelines under protocols approved by the Institutional Animal Care and Use Committee.
To evaluate the effects of pain, the analgesic effects of Epi, ZnCar, Ibu, Nap, Cox, Ibu+Epi, Ibu+ZnCl, Ibu+ZnSt, Ibu+ZnCar, Ibu+Epi+ZnCl, and Ibu+Epi+ZnCar were tested in acetylcholine-induced (8.3 mg/kg, i.p.) mouse writing model. Seven mice were used in each group and were administered drugs orally at predetermined ED50 dose ranges. Thirty minutes after the oral administration of test drug, mice were provided with an intraperitoneal injection of 5.5 mg/kg acetylcholine bromide. […] The number of writhes was counted for 30 min and percentage nociception was calculated and correlatively compared between the groups.

Data set [3] is described as follows: changes in hemoglobin over seven weeks (HemoCue Hb 201). The data set is classed as in vivo. Particulars: mice followed for seven weeks, blood on days 0, 14, 28, 49; FIG. 3.
Procedure: To investigate changes in Hb, mice treated with Epi, Ibu, ZnCar, Nap, Cox, Ibu+Epi, Ibu+ZnCar, and Ibu+Epi+ZnCar were used. A total of 5 mice per group were used. Mice were followed for seven weeks and blood was drawn on days 0, 14, 28, and 49. Hemoglobin was assessed in blood drawn from mice using a HemoCue Hb 201 analyzer. A drop of mouse blood was placed on a HemoCue microcuvette and assessed immediately. Measurements were recorded in millimole per liter.

Where two headings read alike, the source gives them in different places.

Take zinc carnosine [ZnCar]: the “clinical response, paw volume 3 hours after carrageenin injection” value in data set [1] is reported as “did not exhibit therapeutic efficacy in the management of acute inflammation”. For the same compound, in data set [2], the “antinociceptive response (number of writhes, percentage nociception)” value is reported as “did not exhibit therapeutic efficacy in the management of acute pain”.
For the compound `CC(C)Cc1ccc(C(C)C(=O)O)cc1` (centres unmarked) [Ibu, ibuprofen], in data set [3], the change in hemoglobin result is recorded as “progressive highly significant decrease in hemoglobin”. For the setting “mouse, in vivo”, the “change in systolic blood pressure (in words)” value (“change … (in words)” for short) is recorded as “significant elevations in systolic blood pressure” and the “systolic blood pressure (mean)” value is listed as 129.3 mmHg.
For `COc1ccc2cc([C@H](C)C(=O)O)ccc2c1` [Nap, naproxen], the change in hemoglobin entry in data set [3] is “progressive decrease in hemoglobin”. Moreover, under “mouse, in vivo”, the “change … (in words)” value was “significant elevations in systolic blood pressure”.
With `Cc1ccc(-c2cc(C(F)(F)F)nn2-c2ccc(S(N)(=O)=O)cc2)cc1` [Cox, celecoxib], in data set [3], the change in hemoglobin result was “progressive decrease in hemoglobin”. The “change … (in words)” value (mice, measured daily, tail-cuff, p<0.05) was “significant elevations in systolic blood pressure”.
As for `O=C[C@@H](O)[C@@H](O)[C@H](O[C@@H]1O[C@H](CO)[C@H](O)[C@H](O)[C@H]1O)[C@H](O)CO` [Epi, 4-O-β-galactopyranosyl-d-mannose], the “clinical response, paw volume 3 hours after carrageenin injection” value in data set [1] is “did not exhibit therapeutic efficacy in the management of acute inflammation”. In data set [2], the “antinociceptive response (number of writhes, percentage nociception)” value is recorded as “did not exhibit therapeutic efficacy in the management of acute pain”.
